Columns and labels:
Type in all cases: in vivo
INSIG1 = assay: Northern blot quantification of INSIG1 mRNA in liver of rats fed PUFA-supplemented fat free diet; conditions: rat liver RNA; female Wistar rats, fat free diet 2 weeks, then fatty acid 5% (w/w) in diet 2 weeks; ± standard deviation of three rats; normalized for 18S; fat free = 100
Text: (§1) The present inventors have identified genes that were modulated or regulated by dietary fat using a differential display technique (Liang P. and Pardee A. B., 1992, Science, 257: 967-971). Groups of female Wistar rats were fed fat free diet for two weeks. After two weeks all groups but one (controls) were supplemented with highly purified PUFAs for an additional two weeks. The rats were sacrificed and tissues were removed to obtain RNA for differential display and Northern blotting. Differential display identified genes regulated by dietary fat by comparing mRNA populations from rat liver. For the study, the rats were divided into six groups and fed fat free diet for 14 days. Each group was fed fat free diet for an additional two weeks with the following supplements: group 1-no supplement (fat free control); group 2-linoleic acid (LA, 18:2n-6); group 3-gamma-linolenic acid (GLA, 18:3n-6); group 4-alpha-linolenic acid (ALA, 18:3n-3); group 5-eicosapentaenoic acid (EPA, 20:5n-3) and group 6-docosahexaenoic acid (DHA, 22:6n-3). Fatty acids were administered in the diet at a fatty acid-specific concentration of 5% (w/w), as described in Example 1. The rats were fed ad libitum. […] The rats were randomly divided into 6 groups and fed fat free diet (Teklad #94013). After 2 weeks, groups 2-6 were fed diets supplemented with highly purified polyunsaturated fatty acids for an additional 2 weeks. The concentration of the specific fatty acid used for each group was 5% (w/w) of the total diet preparation. The experimental design is provided below. Diets were prepared by mixing the oils into the fat free diet. The mixed diet was stored at -20° C. under a nitrogen atmosphere to prevent fatty acid oxidation. Dietary feedings were provided at the same time each day. Diet preparations are shown below. Rats ([…]) were sacrificed via cardiac puncture under anesthesia. The livers were perfused with saline, excised and frozen in liquid nitrogen in preparation for RNA extraction. Total RNA from 0.4 g of each liver was isolated as per manufacturer's protocol using Trizol Reagent (Gibco BRL). In order to remove contaminating genomic DNA, the RNA sample was incubated with RQ1 RNase-free DNase (Promega) for 30 minutes at 37° C. The RNA was subsequently precipitated and resuspended to a final concentration of 0.5 mg/ml. To confirm the expression pattern of the genes as discovered in the differential display experiment and to determine the transcript size of these genes, Northern blot analysis was performed. […] The transfer of the RNA onto the membrane was verified by methylene blue staining. […] The Northern blot was performed following the protocol in Ausubel et al., 1994-, Current Protocols in Molecular Biology, John Wiley & Sons, NY. […]

GPAT = assay: Northern blot quantification of GPAT mRNA in liver of rats fed PUFA-supplemented fat free diet; conditions: rat liver RNA; female Wistar rats, fat free diet 2 weeks, then fatty acid 5% (w/w) in diet 2 weeks; ± standard deviation of three rats; normalized for 18S; fat free = 100
Text: as §1

G6PD = assay: Northern blot quantification of G6PD mRNA in liver of rats fed PUFA-supplemented fat free diet; conditions: rat liver RNA; female Wistar rats, fat free diet 2 weeks, then fatty acid 5% (w/w) in diet 2 weeks; ± standard deviation of three rats; not normalized for 18S; fat free = 100
Text: as §1

METP = assay: Northern blot quantification of METP mRNA in liver of rats fed PUFA-supplemented fat free diet; conditions: rat liver RNA; female Wistar rats, fat free diet 2 weeks, then fatty acid 5% (w/w) in diet 2 weeks; ± standard deviation of three rats; normalized for 18S; EPA = 100, fat free = 10 ± 5
Text: as §1

[1] = test system: delta-3, delta-2-enoyl-CoA isomerase; assay: Northern blot quantification of delta-3, delta-2-enoyl-CoA isomerase mRNA in liver of rats fed PUFA-supplemented fat free diet; conditions: rat liver RNA; female Wistar rats, fat free diet 2 weeks, then fatty acid 5% (w/w) in diet 2 weeks; ± standard deviation of three rats; normalized for 18S; EPA = 100, fat free = 14 ± 18
Text: as §1

Spot-14 = assay: Northern blot quantification of Spot-14 mRNA in liver of rats fed PUFA-supplemented fat free diet; conditions: rat liver RNA; female Wistar rats, fat free diet 2 weeks, then fatty acid 5% (w/w) in diet 2 weeks; ± standard deviation of three rats; normalized for 18S; fat free = 100
Text: as §1

GLOL = assay: Northern blot quantification of GLOL mRNA in liver of rats fed PUFA-supplemented fat free diet; conditions: rat liver RNA; female Wistar rats, fat free diet 2 weeks, then fatty acid 5% (w/w) in diet 2 weeks; ± standard deviation of three rats; normalized for 18S; fat free = 100
Text: as §1

FAS = assay: Northern blot quantification of FAS mRNA in liver of rats fed PUFA-supplemented fat free diet; conditions: rat liver RNA; female Wistar rats, fat free diet 2 weeks, then fatty acid 5% (w/w) in diet 2 weeks; ± standard deviation of three rats; normalized for 18S; fat free = 100
Text: as §1

FTF1 = assay: Northern blot quantification of FTF1 mRNA in liver of rats fed PUFA-supplemented fat free diet; conditions: rat liver RNA; female Wistar rats, fat free diet 2 weeks, then fatty acid 5% (w/w) in diet 2 weeks; ± standard deviation of three rats; not normalized for 18S; fat free = 100
Text: as §1

COMT = assay: Northern blot quantification of COMT mRNA in liver of rats fed PUFA-supplemented fat free diet; conditions: rat liver RNA; female Wistar rats, fat free diet 2 weeks, then fatty acid 5% (w/w) in diet 2 weeks; ± standard deviation of three rats; normalized for 18S; fat free = 100
Text: as §1

SCD1 = assay: Northern blot quantification of SCD1 mRNA in liver of rats fed PUFA-supplemented fat free diet; conditions: rat liver RNA; female Wistar rats, fat free diet 2 weeks, then fatty acid 5% (w/w) in diet 2 weeks; ± standard deviation of three rats; normalized for 18S; fat free = 100
Text: The present inventors have identified genes that were modulated or regulated by dietary fat using a differential display technique (Liang P. and Pardee A. B., 1992, Science, 257: 967-971). Groups of female Wistar rats were fed fat free diet for two weeks. After two weeks all groups but one (controls) were supplemented with highly purified PUFAs for an additional two weeks. The rats were sacrificed and tissues were removed to obtain RNA for differential display and Northern blotting. Differential display identified genes regulated by dietary fat by comparing mRNA populations from rat liver. For the study, the rats were divided into six groups and fed fat free diet for 14 days. Each group was fed fat free diet for an additional two weeks with the following supplements: group 1-no supplement (fat free control); group 2-linoleic acid (LA, 18:2n-6); group 3-gamma-linolenic acid (GLA, 18:3n-6); group 4-alpha-linolenic acid (ALA, 18:3n-3); group 5-eicosapentaenoic acid (EPA, 20:5n-3) and group 6-docosahexaenoic acid (DHA, 22:6n-3). Fatty acids were administered in the diet at a fatty acid-specific concentration of 5% (w/w), as described in Example 1. The rats were fed ad libitum. […] The rats were randomly divided into 6 groups and fed fat free diet (Teklad #94013). After 2 weeks, groups 2-6 were fed diets supplemented with highly purified polyunsaturated fatty acids for an additional 2 weeks. The concentration of the specific fatty acid used for each group was 5% (w/w) of the total diet preparation. The experimental design is provided below. Diets were prepared by mixing the oils into the fat free diet. The mixed diet was stored at -20° C. under a nitrogen atmosphere to prevent fatty acid oxidation. Dietary feedings were provided at the same time each day. Diet preparations are shown below. Rats ([…]) were sacrificed via cardiac puncture under anesthesia. The livers were perfused with saline, excised and frozen in liquid nitrogen in preparation for RNA extraction. Total RNA from 0.4 g of each liver was isolated as per manufacturer's protocol using Trizol Reagent (Gibco BRL). […]

SCD2 = assay: Northern blot quantification of SCD2 mRNA in liver of rats fed PUFA-supplemented fat free diet; conditions: rat liver RNA; female Wistar rats, fat free diet 2 weeks, then fatty acid 5% (w/w) in diet 2 weeks; ± standard deviation of three rats; normalized for 18S; fat free = 100
Text: as §1

ApoA-1 = assay: Northern blot quantification of ApoA-1 mRNA in liver of rats fed PUFA-supplemented fat free diet; conditions: rat liver RNA; female Wistar rats, fat free diet 2 weeks, then fatty acid 5% (w/w) in diet 2 weeks; ± standard deviation of three rats; normalized for 18S; fat free = 100
Text: as §1

A1BG = assay: Northern blot quantification of A1BG mRNA in liver of rats fed PUFA-supplemented fat free diet; conditions: rat liver RNA; female Wistar rats, fat free diet 2 weeks, then fatty acid 5% (w/w) in diet 2 weeks; ± standard deviation of three rats; not normalized for 18S; DHA = 100, fat free = 7 ± 9
Text: as §1

[2] = test system: mRNA populations from rat liver; assay: Differential display of mRNA populations from liver of rats fed PUFA-supplemented fat free diet; conditions: preliminary differential display studies
Text: The present inventors have identified genes that were modulated or regulated by dietary fat using a differential display technique (Liang P. and Pardee A. B., 1992, Science, 257: 967-971). Groups of female Wistar rats were fed fat free diet for two weeks. After two weeks all groups but one (controls) were supplemented with highly purified PUFAs for an additional two weeks. The rats were sacrificed and tissues were removed to obtain RNA for differential display and Northern blotting. Differential display identified genes regulated by dietary fat by comparing mRNA populations from rat liver. For the study, the rats were divided into six groups and fed fat free diet for 14 days. Each group was fed fat free diet for an additional two weeks with the following supplements: group 1—no supplement (fat free control); group 2—linoleic acid (LA, 18:2n-6); group 3—gamma-linolenic acid (GLA, 18:3n-6); group 4—alpha-linolenic acid (ALA, 18:3n-3); group 5—eicosapentaenoic acid (EPA, 20:5n-3) and group 6—docosahexaenoic acid (DHA, 22:6n-3). Fatty acids were administered in the diet at a fatty acid-specific concentration of 5% (w/w), as described in Example 1. The rats were fed ad libitum. The protocol used in the present differential display experiment is based on, and closely followed, the Clontech Delta Differential Display Kit (Clontech Catalog No. K1810-1). […]

| Structure (SMILES) | quantification of the Northern blots, INSIG1 (INSIG1) | quantification of the Northern blots, GPAT (GPAT) | quantification of the Northern blots, G6PD (G6PD) | quantification of the Northern blots, METP (METP) | quantification of the Northern blots, delta-3, delta-2-enoyl-CoA isomerase [1] | quantification of the Northern blots, Spot-14 (Spot-14) | quantification of the Northern blots, GLOL (GLOL) | quantification of the Northern blots, FAS (FAS) | quantification of the Northern blots, FTF1 (FTF1) | quantification of the Northern blots, COMT (COMT) | quantification of the Northern blots, SCD1 (SCD1) | quantification of the Northern blots, SCD2 (SCD2) | quantification of the Northern blots, ApoA-1 (ApoA-1) | quantification of the Northern blots, A1BG (A1BG) | differences in differential display versus fat free control [2] |
| --- | --- | --- | --- | --- | --- | --- | --- | --- | --- | --- | --- | --- | --- | --- | --- |
| CC/C=C\C/C=C\C/C=C\C/C=C\C/C=C\C/C=C\CCC(=O)O [DHA, docosahexaenoic acid] | 13 ± 11% | 26 ± 15% | 19 ± 7% | 80 ± 28% | 87 ± 2% | 24 ± 18% | 36 ± 17% | 27 ± 21% | 13 ± 12% | 49 ± 3% | 1 ± 1% | 4 ± 1% | 12 ± 1% | 100 ± 64% | – |
| CC/C=C\C/C=C\C/C=C\C/C=C\C/C=C\CCCC(=O)O [EPA, eicosapentaenoic acid] | 25 ± 3% | 14 ± 10% | 15 ± 14% | 100 ± 16% | 100 ± 35% | 19 ± 25% | 29 ± 15% | 17 ± 14% | 10 ± 7% | 50 ± 4% | – | 2 ± 1% | 25 ± 4% | 32 ± 30% | – |
| CCCCC/C=C\C/C=C\C/C=C\CCCCC(=O)O [GLA, gamma-linolenic acid] | 11 ± 2% | 15 ± 13% | 8 ± 9% | 78 ± 12% | 33 ± 15% | 12 ± 7% | 37 ± 11% | 17 ± 12% | 4 ± 8% | 45 ± 23% | 6 ± 8% | 11 ± 6% | 32 ± 8% | 14 ± 10% | – |
| CCCCC/C=C\C/C=C\CCCCCCCC(=O)O [LA, linoleic acid] | 49 ± 12% | 52 ± 5% | 42 ± 27% | 37 ± 7% | 29 ± 27% | 50 ± 6% | 64 ± 6% | 47 ± 40% | 56 ± 15% | 59 ± 6% | 63 ± 20% | 63 ± 15% | 90 ± 23% | 52 ± 47% | no differences |

Reference: US20040146872A1, “Fat regulated genes, uses thereof and compounds for modulating same” (priority 2003, published 2004)
